# Columns and labels:
# [1] = tested on: wild oat; assay: Test B pre/postemergence wild oat; assay type: in vivo, Avena fatua
# Procedure, shortened: (§1)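 Test chemicals in a non-phytotoxic solvent mixture with surfactant were sprayed preemergence onto planted seeds and postemergence onto plants 2 to 18 cm tall (1- to 4-leaf stage). After twelve to sixteen days in a greenhouse, injury was visually rated against untreated controls from 0 (no effect) to 10 (complete control).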
# [2] = tested on: crabgrass; assay: Test B pre/postemergence crabgrass; assay type: in vivo, Digitaria sanguinalis
# Procedure, shortened: as §1
# [3] = tested on: soybean; assay: Test B pre/postemergence soybean; assay type: in vivo, Glycine max
# Procedure, shortened: as §1
# [4] = tested on: blackgrass; assay: Test B pre/postemergence blackgrass; assay type: in vivo, Alopecurus myosuroides
# Procedure, shortened: as §1
# [5] = tested on: bedstraw; assay: Test B pre/postemergence bedstraw; assay type: in vivo, Galium aparine
# Procedure, shortened: as §1
# [6] = tested on: corn; assay: Test B pre/postemergence corn; assay type: in vivo, Zea mays
# Procedure, shortened: as §1
# [7] = tested on: surinam grass; assay: Test B pre/postemergence surinam grass; assay type: in vivo, Brachiaria decumbens
# Procedure, shortened: as §1
# [8] = tested on: cocklebur; assay: Test B pre/postemergence cocklebur; assay type: in vivo, Xanthium strumarium
# Procedure, shortened: as §1
# [9] = tested on: sugar beet; assay: Test B pre/postemergence sugar beet; assay type: in vivo, Beta vulgaris
# Procedure, shortened: as §1
# [10] = tested on: bamyardgrass; assay: Test B flood test barnyardgrass; assay type: in vivo, Echinochloa crus-galli
# Procedure, shortened: (§2)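 Each value is a visual injury score relative to controls, with 10 meaning complete control and 0 no effect. Evaluation took place twelve to sixteen days after the 2-leaf-stage plants were treated and kept in the greenhouse.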
# [11] = tested on: pigweed; assay: Test B pre/postemergence pigweed; assay type: in vivo, Amaranthus retroflexus
# Procedure, shortened: as §1
# [12] = tested on: rape; assay: Test B pre/postemergence rape; assay type: in vivo, Brassica napus
# Procedure, shortened: as §1
# [13] = tested on: smallflower flatsedge; assay: Test B flood test smallflower flatsedge; assay type: in vivo, Cyperus difformis
# Procedure, shortened: as §2
# [14] = tested on: purple nutsedge; assay: Test B pre/postemergence purple nutsedge; assay type: in vivo, Cyperus rotundus
# Procedure, shortened: as §1
# [15] = tested on: velvetleaf; assay: Test B pre/postemergence velvetleaf; assay type: in vivo, Abutilon theophrasti
# Procedure, shortened: as §1
# [16] = tested on: wheat; assay: Test B pre/postemergence wheat; assay type: in vivo, Triticum aestivum
# Procedure, shortened: as §1
# [17] = Postemergence, Rate 62 g/ha, scale 0 to 10, 0 is no effect, 10 is complete control
# [18] = Postemergence, Rate 125 g/ha, scale of 0 to 10 where 0 is no effect and 10 is complete control
# [19] = Postemergence, Rate 250 g/ha, scale of 0 to 10, 0 is no effect, 10 is complete control
# [20] = Postemergence, Rate 500 g/ha, scale of 0 to 10 where 0 is no effect and 10 is complete control
# [21] = Preemergence, Rate 62 g/ha, scale 0 to 10 (0 no effect, 10 complete control)
# [22] = Preemergence, Rate 125 g/ha, scale of 0 to 10 where 0 is no effect and 10 is complete control
# [23] = Preemergence, Rate 500 g/ha, scale of 0 to 10 where 0 is no effect and 10 is complete control
# [24] = Rate 62 g/ha, flood test species, Pre-emergence, visual evaluation after twelve to sixteen days
# [25] = Rate 125 g/ha, under heading Pre-emergence, flood test species, visual evaluation after twelve to sixteen days
# [26] = Rate 250 g/ha, Pre-emergence (flood test species), scale 0 to 10, 0 is no effect, 10 is complete control
# [27] = Rate 500 g/ha, Pre-emergence section of Table B, 0 to 10 scale (0 no effect, 10 complete control)
structure (smiles),measurement,setting,value
CC(C)N(C(=O)n1oc(=O)n(CC2=NOCCC2)c1=O)c1ccc(F)cc1 [Compound 601],"Plant response rating, Wild oats",[1]; [17],0
same,"Plant response rating, Wild oats",[1]; [18],0
same,Wild oats plant response rating,[1]; [19],0
same,"Plant response rating, Wild oats",[1]; [20],0
same,Wild oats plant response rating,[1]; [21],3
same,Wild oats plant response rating,[1]; [22],8
same,"Plant response rating, Wild oats",[1]; [23],8
same,"Plant response rating, Crabgrass",[2]; [17],3
same,"Plant response rating, Crabgrass",[2]; [18],4
same,Crabgrass plant response rating,[2]; [19],5
same,"Plant response rating, Crabgrass",[2]; [20],9
same,Crabgrass plant response rating,[2]; [21],6
same,Crabgrass plant response rating,[2]; [22],9
same,"Plant response rating, Crabgrass",[2]; [23],10
same,"Plant response rating, Soybean",[3]; [17],4
same,"Plant response rating, Soybean",[3]; [18],4
same,Soybean plant response rating,[3]; [19],5
same,"Plant response rating, Soybean",[3]; [20],6
same,Soybean plant response rating,[3]; [21],0
same,Soybean plant response rating,[3]; [22],0
same,"Plant response rating, Soybean",[3]; [23],1
same,Blackgrass plant response rating,[4]; [19],7
same,"Plant response rating, Blackgrass",[4]; [20],8
same,Blackgrass plant response rating,[4]; [22],8
same,Blackgrass plant response rating (0 to 10 scale),"[4]; Preemergence, Rate 250 g/ha",8
same,Blackgrass plant response rating,[4]; [23],9
same,Bedstraw plant response rating,[5]; [19],3
same,"Plant response rating, Bedstraw",[5]; [20],8
same,Bedstraw plant response rating,[5]; [21],0
same,Bedstraw plant response rating,[5]; [22],0
same,Bedstraw plant response rating (0 to 10 scale),"[5]; Preemergence, Rate 250 g/ha",0
same,"Plant response rating, Corn",[6]; [17],0
same,"Plant response rating, Corn",[6]; [18],0
same,Corn plant response rating,[6]; [19],0
same,"Plant response rating, Corn",[6]; [20],0
same,Corn plant response rating,[6]; [21],0
same,Corn plant response rating,[6]; [22],0
same,Corn plant response rating (0 to 10 scale),"[6]; Preemergence, Rate 250 g/ha",0
same,"Plant response rating, Corn",[6]; [23],3
same,"Plant response rating, B. signalgrass",[7]; [17],0
same,"Plant response rating, B. signalgrass",[7]; [18],0
same,B. signalgrass plant response rating,[7]; [19],4
same,"Plant response rating, B. signalgrass",[7]; [20],7
same,B. signalgrass plant response rating,[7]; [21],3
same,B. signalgrass plant response rating,[7]; [22],7
same,"B. signalgrass plant response rating (0 to 10 scale, 0 is no effect, 10 is complete control)","[7]; Preemergence, Rate 250 g/ha",8
same,B. signalgrass plant response rating,[7]; [23],8
same,"Plant response rating, Cocklebur",[8]; [17],0
same,"Plant response rating, Cocklebur",[8]; [18],0
same,Cocklebur plant response rating,[8]; [19],0
same,"Plant response rating, Cocklebur",[8]; [20],1
same,Cocklebur plant response rating,[8]; [21],0
same,Cocklebur plant response rating,[8]; [22],0
same,Cocklebur plant response rating (0 to 10 scale),"[8]; Preemergence, Rate 250 g/ha",0
same,"Plant response rating, Cocklebur",[8]; [23],0
same,"Plant response rating, Sugarbeets",[9]; [17],0
same,"Plant response rating, Sugarbeets",[9]; [18],0
same,Sugarbeets plant response rating,[9]; [19],0
same,"Plant response rating, Sugarbeets",[9]; [20],0
same,Sugarbeets plant response rating,[9]; [21],0
same,Sugarbeets plant response rating,[9]; [22],4
same,"Plant response rating, Sugarbeets",[9]; [23],5
same,"Plant response rating, Barnyardgrass (0 to 10 scale, 0 is no effect, 10 is complete control)",[10]; [24],0
same,"Barnyardgrass plant response rating (0 to 10 scale, 0 is no effect, 10 is complete control)",[10]; [25],0
same,Barnyardgrass plant response rating,[10]; [26],0
same,Barnyardgrass plant response rating,[10]; [27],0
same,"Plant response rating, Redroot pigweed",[11]; [17],0
same,"Plant response rating, Redroot pigweed",[11]; [18],2
same,Redroot pigweed plant response rating,[11]; [19],2
same,"Plant response rating, Redroot pigweed",[11]; [20],4
same,Redroot pigweed plant response rating,[11]; [21],4
same,Redroot pigweed plant response rating,[11]; [22],10
same,"Plant response rating, Redroot pigweed",[11]; [23],10
same,"Plant response rating, Rape",[12]; [17],0
same,"Plant response rating, Rape",[12]; [18],0
same,Rape plant response rating,[12]; [19],0
same,"Plant response rating, Rape",[12]; [20],0
same,Rape plant response rating,[12]; [21],0
same,Rape plant response rating,[12]; [22],0
same,"Plant response rating, Rape",[12]; [23],5
same,"Plant response rating, S. Flatsedge (0 to 10 scale, 0 is no effect, 10 is complete control)",[13]; [24],0
same,"S. Flatsedge plant response rating (0 to 10 scale, 0 is no effect, 10 is complete control)",[13]; [25],0
same,S. Flatsedge plant response rating,[13]; [26],0
same,S. Flatsedge plant response rating,[13]; [27],0
same,"Plant response rating, Nutsedge",[14]; [17],0
same,"Plant response rating, Nutsedge",[14]; [18],0
same,Nutsedge plant response rating,[14]; [19],0
same,"Plant response rating, Nutsedge",[14]; [20],0
same,Nutsedge plant response rating,[14]; [21],0
same,Nutsedge plant response rating,[14]; [22],0
same,"Plant response rating, Velvetleaf",[15]; [17],0
same,"Plant response rating, Velvetleaf",[15]; [18],0
same,Velvetleaf plant response rating,[15]; [19],0
same,"Plant response rating, Velvetleaf",[15]; [20],4
same,Velvetleaf plant response rating,[15]; [21],1
same,Velvetleaf plant response rating,[15]; [22],4
same,"Plant response rating, Velvetleaf",[15]; [23],7
same,"Plant response rating, Wheat",[16]; [17],0
same,"Plant response rating, Wheat",[16]; [18],0
same,Wheat plant response rating,[16]; [19],0
same,"Plant response rating, Wheat",[16]; [20],3
same,Wheat plant response rating,[16]; [21],0
same,Wheat plant response rating,[16]; [22],1
same,"Plant response rating, Wheat",[16]; [23],6

# — patent US6737383B1, “Herbicidal oxadiazolidines” (priority 1999, dated 2004)
